Ki data for 12 compounds are collected here from US8497245B2, “Trypsin-like serine protease inhibitors, their preparation and use as selective inhibitors of the clotting factors IIa and Xa” (The Medicines Company (Leipzig) GmbH, priority 2010, dated 2013).

Holding throughout (assay type): biochemical
In test [1] the target is T1, Human plasma kallikrein (h PK) (Homo sapiens, UniProt P03952).
T1 construct: purchased Enzyme Research Laboratories
The experiment in a line: Inhibition of human plasma kallikrein (reference enzyme). To be noted: S2302 substrate. The method, then: (§1) The inhibitory effect against the individual purified enzymes was determined in analogy to a previously disclosed method (Stürzebecher et al., J. Med. Chem., 40, 3091-3099 (1997)).
(§2) The release of p-nitroaniline (p-NA, the chromogenic product of the proteolytic activity), was determined by change in absorbance at 405 nm. The equilibrium rates were used to calculate the inhibitor/enzyme dissociation constant (Ki values) by parameter fitting in accordance with the rate equation for competitive inhibition using GraFit (version 4 from Erithacus). The results are reported as Ki values (nanomolar) in table 7 and are the average of at least three determinations.
(§3) Dissociation constants were calculated as described herein.

The target of test [2] is T2, Subcomponent "s" of Human Complement Component 1 (h C1s) (Homo sapiens, UniProt P09871).
T2 construct: purchased Calbiochem
T2 sequence (P09871 438-688 limits assumed): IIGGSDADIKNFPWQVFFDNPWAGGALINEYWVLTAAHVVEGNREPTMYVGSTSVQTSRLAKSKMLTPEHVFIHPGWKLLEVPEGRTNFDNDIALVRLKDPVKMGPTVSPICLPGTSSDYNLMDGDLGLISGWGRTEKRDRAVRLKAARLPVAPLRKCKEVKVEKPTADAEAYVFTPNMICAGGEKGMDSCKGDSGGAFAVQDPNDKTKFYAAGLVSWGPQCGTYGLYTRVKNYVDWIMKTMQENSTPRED
T2 sequence (P09871 16-437 partner limits assumed): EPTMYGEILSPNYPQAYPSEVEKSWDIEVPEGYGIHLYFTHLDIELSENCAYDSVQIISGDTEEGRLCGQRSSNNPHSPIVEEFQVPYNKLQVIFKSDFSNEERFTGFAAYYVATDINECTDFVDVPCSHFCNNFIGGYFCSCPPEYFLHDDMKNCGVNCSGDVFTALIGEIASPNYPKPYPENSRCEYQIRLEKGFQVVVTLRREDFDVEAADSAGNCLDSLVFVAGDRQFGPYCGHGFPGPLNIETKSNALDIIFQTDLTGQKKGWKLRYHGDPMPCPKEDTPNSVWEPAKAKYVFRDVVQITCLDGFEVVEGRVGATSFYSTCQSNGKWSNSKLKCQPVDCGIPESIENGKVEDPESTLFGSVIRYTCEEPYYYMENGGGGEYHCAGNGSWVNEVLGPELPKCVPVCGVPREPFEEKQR
In words: Inhibition of human C1s (reference enzyme). The following applies: S-2314 substrate; read-out: Ki h Cls. The procedure: as §1, §2, §3

In test [3] the target is T3, Subcomponent "r" of Human Complement Component 1 (h C1r) (Homo sapiens, UniProt P00736).
T3 construct: purchased Calbiochem
T3 sequence (P00736 464-705 limits assumed): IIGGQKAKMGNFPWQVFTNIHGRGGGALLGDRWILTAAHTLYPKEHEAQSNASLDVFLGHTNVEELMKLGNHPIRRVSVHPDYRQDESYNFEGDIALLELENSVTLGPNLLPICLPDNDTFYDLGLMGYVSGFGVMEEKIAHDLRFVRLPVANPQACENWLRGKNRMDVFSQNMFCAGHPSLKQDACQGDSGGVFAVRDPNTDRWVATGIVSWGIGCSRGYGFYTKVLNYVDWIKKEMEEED
T3 sequence (P00736 18-463 partner limits assumed): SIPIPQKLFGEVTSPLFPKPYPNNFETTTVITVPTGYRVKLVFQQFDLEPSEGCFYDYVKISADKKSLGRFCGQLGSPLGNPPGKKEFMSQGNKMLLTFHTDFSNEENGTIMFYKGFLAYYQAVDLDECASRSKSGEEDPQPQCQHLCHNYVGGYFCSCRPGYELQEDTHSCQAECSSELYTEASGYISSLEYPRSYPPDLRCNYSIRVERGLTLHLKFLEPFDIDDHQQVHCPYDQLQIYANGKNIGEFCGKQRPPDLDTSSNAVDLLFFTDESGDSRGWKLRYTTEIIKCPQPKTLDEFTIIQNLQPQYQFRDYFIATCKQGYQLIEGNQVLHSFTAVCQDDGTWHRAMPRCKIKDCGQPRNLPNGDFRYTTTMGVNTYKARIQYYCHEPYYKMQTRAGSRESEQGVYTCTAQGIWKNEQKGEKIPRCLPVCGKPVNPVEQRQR
The experiment in a line: Inhibition of human C1r (reference enzyme). To be noted: S-2314 substrate; read-out: Ki h Clr. The method, then: as §1, §2, §3

Test [4] has as its target T4, Human Activated Protein C (h aPC) (Homo sapiens, UniProt P04070).
T4 construct: purchased Enzyme Research Laboratories
In words: Inhibition of human activated protein C (reference enzyme). To be noted: Pefachrome PCa substrate. The procedure:
as §1, §2, §3

The target in test [5] is T5, Human urokinase type plasminogen activator (h u-PA) (Homo sapiens, UniProt P00749).
T5 construct: purchased MEDAC GmbH Urokinase HS medac
The experiment in a line: Inhibition of human urokinase type plasminogen activator (reference enzyme). To be noted: H-Glu-Gly-Arg-pNA substrate. The procedure: as §1, §2, §3

Test [6] deals with T6, Human plasmin (h plasmin) (Homo sapiens, UniProt P00747).
T6 construct: purchased Calbiochem
T6 sequence (P00747 581-810 limits assumed): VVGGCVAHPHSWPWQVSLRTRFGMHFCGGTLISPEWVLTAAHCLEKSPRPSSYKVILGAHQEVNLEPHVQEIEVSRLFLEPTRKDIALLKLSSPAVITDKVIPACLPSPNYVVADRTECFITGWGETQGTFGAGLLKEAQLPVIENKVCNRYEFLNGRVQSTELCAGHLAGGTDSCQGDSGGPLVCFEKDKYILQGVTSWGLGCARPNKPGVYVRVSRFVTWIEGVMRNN
T6 sequence (P00747 97-580 partner limits assumed): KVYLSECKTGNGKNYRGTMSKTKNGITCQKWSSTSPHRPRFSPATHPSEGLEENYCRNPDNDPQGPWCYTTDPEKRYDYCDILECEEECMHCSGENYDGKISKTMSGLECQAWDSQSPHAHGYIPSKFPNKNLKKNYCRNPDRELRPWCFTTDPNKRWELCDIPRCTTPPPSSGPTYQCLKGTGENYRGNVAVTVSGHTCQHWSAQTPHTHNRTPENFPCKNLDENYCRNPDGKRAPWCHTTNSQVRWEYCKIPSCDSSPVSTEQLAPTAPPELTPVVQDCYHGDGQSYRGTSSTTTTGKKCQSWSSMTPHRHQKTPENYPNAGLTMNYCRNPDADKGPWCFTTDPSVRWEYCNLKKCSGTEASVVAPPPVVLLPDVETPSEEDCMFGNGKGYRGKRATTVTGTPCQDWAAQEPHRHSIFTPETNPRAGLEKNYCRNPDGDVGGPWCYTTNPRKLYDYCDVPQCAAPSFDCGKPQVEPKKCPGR
The experiment in a line: Inhibition of human plasmin (reference enzyme). To be noted: Chromozym PL substrate. The method, then: as §1, §2, §3

Test [7] concerns the target T7, human factor IIa (human alpha-thrombin) (Homo sapiens, UniProt P00734).
T7 construct: human alpha-thrombin from Enzyme Research Laboratories; purchased Enzyme Research Laboratories
The experiment in a line: Inhibition constants for human factor IIa, chromogenic substrate assay. The following applies: 25° C., Pefachrome tPA substrate, average of at least three determinations; read-out: Ki h FIIa. The procedure: as §1
(§4) 200 μL of TBS (0.05 M trishydroxymethylaminomethane; 0.154 M NaCl, 2% ethanol, pH 8.0)
as §2

Test [8] deals with T8, Human urinary kallikrein (h uKK) (Homo sapiens, UniProt P06870).
T8 construct: purchased Lee Biosolutions
T8 sequence (P06870 25-262): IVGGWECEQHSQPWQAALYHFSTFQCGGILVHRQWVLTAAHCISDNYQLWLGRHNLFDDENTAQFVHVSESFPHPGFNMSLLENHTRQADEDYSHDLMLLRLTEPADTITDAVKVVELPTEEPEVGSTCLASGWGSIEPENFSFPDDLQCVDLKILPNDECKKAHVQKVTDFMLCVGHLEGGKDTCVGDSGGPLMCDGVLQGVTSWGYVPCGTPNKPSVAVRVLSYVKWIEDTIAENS
In words: Inhibition of human urinary kallikrein (reference enzyme). To be noted: S-2266 substrate. The procedure: as §1, §2, §3

For a further test, the target named is T9, human Factor Xa (Homo sapiens, UniProt P00742).
T9 construct: human Factor Xa from Enzyme Research Laboratories; purchased Enzyme Research Laboratories
T9 sequence (P00742 235-488 limits assumed): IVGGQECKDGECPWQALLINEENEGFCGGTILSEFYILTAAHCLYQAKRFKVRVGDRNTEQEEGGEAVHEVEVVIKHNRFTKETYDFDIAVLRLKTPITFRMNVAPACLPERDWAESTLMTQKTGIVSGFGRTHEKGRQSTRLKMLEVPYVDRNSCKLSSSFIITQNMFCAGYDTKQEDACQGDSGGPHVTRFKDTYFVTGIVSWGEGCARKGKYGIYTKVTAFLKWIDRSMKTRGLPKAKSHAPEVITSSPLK
T9 sequence (P00742 41-179 partner limits assumed): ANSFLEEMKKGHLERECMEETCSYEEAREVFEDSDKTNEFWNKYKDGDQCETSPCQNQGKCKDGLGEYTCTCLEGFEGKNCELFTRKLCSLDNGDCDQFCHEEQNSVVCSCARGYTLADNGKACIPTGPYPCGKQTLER
In words: Inhibition constants for human factor Xa, chromogenic substrate assay. The following applies: 25° C., Pefachrome FXa substrate, average of at least three determinations; read-out: Ki h FXa. The procedure: as §1, §4, §2

For test [9], the target named is T10, Human tissue-type plasminogen activator (h t-PA) (Homo sapiens, UniProt P00750).
T10 construct: purchased Boehringer Ingelheim Actilyse
T10 sequence (P00750 36-562): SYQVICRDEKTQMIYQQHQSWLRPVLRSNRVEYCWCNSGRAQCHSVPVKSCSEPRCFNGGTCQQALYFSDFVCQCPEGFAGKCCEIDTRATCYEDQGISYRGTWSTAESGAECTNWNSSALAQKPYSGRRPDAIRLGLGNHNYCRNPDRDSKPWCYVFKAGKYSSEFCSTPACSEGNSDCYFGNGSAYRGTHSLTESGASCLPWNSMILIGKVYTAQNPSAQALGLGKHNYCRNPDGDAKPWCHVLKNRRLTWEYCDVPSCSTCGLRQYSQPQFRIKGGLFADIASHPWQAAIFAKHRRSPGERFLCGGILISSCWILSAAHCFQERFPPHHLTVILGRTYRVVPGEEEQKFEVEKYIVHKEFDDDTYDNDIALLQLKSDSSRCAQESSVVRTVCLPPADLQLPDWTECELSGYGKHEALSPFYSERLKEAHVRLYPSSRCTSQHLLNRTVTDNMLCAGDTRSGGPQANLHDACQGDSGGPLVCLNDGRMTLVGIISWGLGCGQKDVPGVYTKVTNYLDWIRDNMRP
In words: Inhibition of human tissue-type plasminogen activator (reference enzyme). The procedure:
The equilibrium rates were used to calculate the inhibitor/enzyme dissociation constant (Ki values) by parameter fitting in accordance with the rate equation for competitive inhibition using GraFit (version 4 from Erithacus).
as §3

[10] abbreviates: Pefachrome tPA substrate, read-out: Ki h t-PA.

Structures can show the parent of a compound that is named as a salt. Where two headings read alike, the source gives them in different places.

T1 sequence (P03952 391-638 limits assumed): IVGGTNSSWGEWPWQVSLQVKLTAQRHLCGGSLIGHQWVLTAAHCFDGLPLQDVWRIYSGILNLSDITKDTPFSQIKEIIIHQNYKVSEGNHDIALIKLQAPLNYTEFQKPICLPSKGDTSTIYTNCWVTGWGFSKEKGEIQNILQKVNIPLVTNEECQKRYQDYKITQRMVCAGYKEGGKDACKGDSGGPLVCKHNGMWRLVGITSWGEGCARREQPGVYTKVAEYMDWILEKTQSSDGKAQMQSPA
T1 sequence (P03952 20-390 partner limits assumed): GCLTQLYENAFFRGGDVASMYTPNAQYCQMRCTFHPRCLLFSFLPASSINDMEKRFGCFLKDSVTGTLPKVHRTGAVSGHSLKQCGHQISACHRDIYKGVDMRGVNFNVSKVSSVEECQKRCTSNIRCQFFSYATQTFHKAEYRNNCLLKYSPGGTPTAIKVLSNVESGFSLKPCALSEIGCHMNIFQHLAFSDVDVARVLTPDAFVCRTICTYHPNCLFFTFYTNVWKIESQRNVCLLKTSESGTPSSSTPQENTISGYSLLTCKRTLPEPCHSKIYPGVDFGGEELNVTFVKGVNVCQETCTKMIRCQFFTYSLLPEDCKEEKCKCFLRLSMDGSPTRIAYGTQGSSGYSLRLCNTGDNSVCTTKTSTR
T4 sequence (P04070 212-450 limits assumed): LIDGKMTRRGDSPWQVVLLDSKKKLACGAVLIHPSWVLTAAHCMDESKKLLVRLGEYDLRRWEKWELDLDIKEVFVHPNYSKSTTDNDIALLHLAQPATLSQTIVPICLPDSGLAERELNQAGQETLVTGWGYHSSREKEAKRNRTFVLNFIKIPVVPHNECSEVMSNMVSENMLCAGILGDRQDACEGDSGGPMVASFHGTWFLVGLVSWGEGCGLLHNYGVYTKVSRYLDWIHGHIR
T4 sequence (P04070 43-197 partner limits assumed): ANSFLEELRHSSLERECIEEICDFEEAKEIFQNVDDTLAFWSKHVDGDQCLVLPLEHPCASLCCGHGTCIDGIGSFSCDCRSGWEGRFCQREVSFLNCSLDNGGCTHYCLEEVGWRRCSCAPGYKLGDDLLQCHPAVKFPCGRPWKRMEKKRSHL

Consider `NCc1ccc(Cl)cc1CNC(=O)[C@@H]1CCCN1C(=O)[C@@H](CCC(=O)N1CCOCC1)NS(=O)(=O)Cc1ccccc1` [Compound 2.1, Bzls-D-Glu(morpholino)-L-Pro-Amb(2-AMe-5-Cl)×1 TFA], for which the Ki (commonly the equilibrium dissociation constant of an inhibitor or competing ligand from its target) in test [1] was 1.86 µM; in test [2], greater than 80 µM; in test [3], greater than 200 µM; in [4], greater than 100 µM; in test [5] it was greater than 40 µM; in test [6], greater than 28 µM. Besides, the Ki in test [7] was 0.00043 µM; in test [8], greater than 60 µM; at human Factor Xa it was 0.0011 µM; in test [9] (setting [10]), greater than 20 µM.
In the case of `CC(=O)N1CCC(N(C)C(=O)C[C@@H](NS(=O)(=O)Cc2ccccc2)C(=O)N2CCC[C@H]2C(=O)NCc2cc(Cl)ccc2CN)CC1` [Compound 2.2], the Ki in test [1] was 4.46 µM; in [2], greater than 100 µM; in test [3] it was greater than 50 µM; in [4], greater than 90 µM; in [5], greater than 50 µM; in test [6], greater than 10 µM. Also, the Ki was 0.0031 µM in test [7], greater than 10 µM in test [8], 0.023 µM at human Factor Xa and greater than 100 µM in test [9] (setting [10]).
As for `CN(C(=O)C[C@@H](NS(=O)(=O)Cc1ccccc1)C(=O)N1CCC[C@H]1C(=O)NCc1cc(Cl)ccc1CN)C1CCNCC1` [Compound 2.3], the Ki in [1] was 5.31 µM; in test [2], greater than 20 µM; in [3], greater than 100 µM; in [4], greater than 10 µM; in test [5], greater than 100 µM; in [6] it was greater than 100 µM. Moreover, the Ki in [7] is 0.003 µM; in [8], greater than 50 µM; at human Factor Xa it was 0.023 µM; in test [9], greater than 50 µM.
As for `CN(C(=O)C[C@@H](NS(=O)(=O)Cc1ccccc1)C(=O)N1CCC[C@H]1C(=O)NCc1cc(Cl)ccc1CN)C1CCOCC1` [Compound 2.4], the Ki is 0.262 µM in test [1]; greater than 25 µM in [2]; greater than 10 µM in test [3]; greater than 10 µM in test [4]; greater than 40 µM in test [5]; greater than 20 µM in [6]. For the same compound, the Ki is 0.00056 µM in test [7], greater than 50 µM in [8], 0.0013 µM on human Factor Xa and greater than 100 µM in test [9] (setting [10]).
As to `CC(=O)N1CCC(N(C)C(=O)CC[C@@H](NS(=O)(=O)Cc2ccccc2)C(=O)N2CCC[C@H]2C(=O)NCc2cc(Cl)ccc2CN)CC1` [Compound 2.28], the Ki in test [2] was greater than 20 µM; in test [3], greater than 100 µM; in test [4] it was greater than 50 µM; in test [5], greater than 20 µM; in test [6] it was 5.56 µM; in test [7] it was 0.00057 µM. The inhibitory constant (Ki) in test [8] was greater than 100 µM; on human Factor Xa, 0.036 µM; in test [9] (setting [10]) it was greater than 100 µM.
On to `NCc1ccc(Cl)cc1CNC(=O)[C@@H]1CCCN1C(=O)[C@@H](CCC(=O)O)NS(=O)(=O)Cc1ccccc1` [Compound 2.29], for which the Ki in [1] was greater than 20 µM; in [2] it was greater than 50 µM; in [3], greater than 10 µM; in [4] it was greater than 25 µM; in test [5] it was greater than 100 µM; in [6], greater than 15 µM. Further, the Ki in [7] was 0.0033 µM; on human Factor Xa it was 0.093 µM; in test [9] (setting [10]) it was greater than 20 µM.
`NCc1ccc(Cl)cc1CNC(=O)[C@@H]1CCCN1C(=O)[C@@H](CC(=O)N1CCOCC1)NS(=O)(=O)Cc1ccccc1` [Compound 2.36]: the Ki was 0.565 µM in test [1]; greater than 100 µM in [2]; greater than 30 µM in test [3]; greater than 100 µM in test [4]; greater than 40 µM in test [5]; greater than 12 µM in test [6]. Besides, the Ki in [7] was 0.00034 µM; on human Factor Xa, 0.00038 µM; in test [9] (setting [10]), 18 µM.
As for `NCc1ccc(Cl)cc1CNC(=O)[C@@H]1CCCN1C(=O)[C@@H](CC(=O)N1CCSCC1)NS(=O)(=O)Cc1ccccc1` [Compound 2.37], the Ki in test [1] is 0.413 µM; in test [2] it was greater than 80 µM; in test [3] it was greater than 200 µM; in [4], greater than 40 µM; in test [5], greater than 20 µM; in test [6], 6 µM. Also, the results for the Ki (in [7]; at human Factor Xa; in [9] (setting [10])) were 0.00049 µM, 0.00054 µM and 19 µM, respectively.
Regarding `NCc1ccc(Cl)cc1CNC(=O)[C@@H]1CCCN1C(=O)[C@@H](CC(=O)N1CC[S+]([O-])CC1)NS(=O)(=O)Cc1ccccc1` [Compound 2.38], the Ki is 0.614 µM in [1]; greater than 80 µM in [2]; greater than 200 µM in [3]; greater than 50 µM in test [4]; greater than 60 µM in test [5]; 0.0078 µM in test [7]. Besides, the Ki at human Factor Xa is 0.0055 µM; in [9] (setting [10]), greater than 20 µM.
With `NCc1ccc(Cl)cc1CNC(=O)[C@@H]1CCCN1C(=O)[C@@H](CC(=O)N1CCS(=O)(=O)CC1)NS(=O)(=O)Cc1ccccc1` [Compound 2.39], the Ki was greater than 0.5 µM in test [4], 0.0186 µM in [7] and 0.0154 µM on human Factor Xa.
`CC(=O)N1CCN(C(=O)C[C@@H](NS(=O)(=O)Cc2ccccc2)C(=O)N2CCC[C@H]2C(=O)NCc2cc(Cl)ccc2CN)CC1` [Compound 2.40]: the Ki in [1] was 0.478 µM; in test [2], greater than 80 µM; in [3], greater than 50 µM; in test [4] it was greater than 100 µM; in test [5], greater than 50 µM; in [6] it was 9 µM. Besides, the Ki in [7] is 0.0063 µM; at human Factor Xa, 0.0024 µM; in test [9] (setting [10]) it was greater than 20 µM.
Turning to `NCc1ccc(Cl)cc1CNC(=O)[C@@H]1CCCN1C(=O)[C@@H](CC(=O)Nc1cc[n+]([O-])cc1)NS(=O)(=O)Cc1ccccc1` [Compound 2.48, Bzls-D-Asp(1-oxido-4-amino-pyridine)-L-Pro-Amb(2-AMe-5-Cl)], the Ki in test [1] was 0.8 µM; in [2], greater than 20 µM; in [3] it was greater than 100 µM; in [4] it was greater than 10 µM; in test [5], greater than 100 µM; in [7], 0.0025 µM. Moreover, the inhibitory constant (Ki) was greater than 100 µM in test [8], 0.017 µM on human Factor Xa and 26.8 µM in [9] (setting [10]).
